Test results reported in ChEMBL document CHEMBL6087462, “Cuminaldehyde Potentiates Antiproteolytic Peptide Efficacy via Parallel Pathways of Enhanced Inner Membrane-Damaging Activity and Inhibition of Bacterial Energy Metabolism” (J Med Chem, 2025).

Legend:
Escherichia coli [1] = assay: Synergistic antimicrobial activity against Escherichia coli 25922 assessed as fractional inhibitory concentration index in presence of citral by checkerboard broth microdilution assay; assay type: functional
Escherichia coli [2] = assay: Synergistic antimicrobial activity against Escherichia coli UB1005 assessed as fractional inhibitory concentration index in presence of perillaldehyde by checkerboard broth microdilution assay; assay type: functional
Escherichia coli [3] = assay: Synergistic antimicrobial activity against Escherichia coli UB1005 assessed as fractional inhibitory concentration index in presence of carvacrol by checkerboard broth microdilution assay; assay type: functional
Escherichia coli [4] = assay: Synergistic antimicrobial activity against Escherichia coli K88 assessed as fractional inhibitory concentration index in presence of citral by checkerboard broth microdilution assay; assay type: functional
Escherichia coli [5] = assay: Synergistic antimicrobial activity against Escherichia coli K99 assessed as fractional inhibitory concentration index in presence of cuminaldehyde by checkerboard broth microdilution assay; assay type: functional
Escherichia coli [6] = assay: Synergistic antimicrobial activity against Escherichia coli K99 assessed as fractional inhibitory concentration index in presence of citral by checkerboard broth microdilution assay; assay type: functional
Escherichia coli [7] = assay: Synergistic antimicrobial activity against Escherichia coli 078 assessed as fractional inhibitory concentration index in presence of cuminaldehyde by checkerboard broth microdilution assay; assay type: functional, 78
Escherichia coli [8] = assay: Synergistic antimicrobial activity against Escherichia coli 078 assessed as fractional inhibitory concentration index in presence of perillaldehyde by checkerboard broth microdilution assay; assay type: functional, 78
Salmonella typhimurium [9] = assay: Synergistic antimicrobial activity against Salmonella typhimurium 14028 assessed as fractional inhibitory concentration index in presence of citronellal by checkerboard broth microdilution assay; assay type: functional, Salmonella enterica subsp. enterica serovar Typhimurium
Salmonella typhimurium [10] = assay: Synergistic antimicrobial activity against Salmonella typhimurium 14028 assessed as fractional inhibitory concentration index in presence of carvacrol by checkerboard broth microdilution assay; assay type: functional, Salmonella enterica subsp. enterica serovar Typhimurium
Salmonella typhimurium [11] = assay: Synergistic antimicrobial activity against Salmonella typhimurium 7731 assessed as fractional inhibitory concentration index in presence of citral by checkerboard broth microdilution assay; assay type: functional, Salmonella enterica subsp. enterica serovar Typhimurium
[12] = Synergistic antimicrobial activity against Salmonella enterica subsp. enterica serovar Pullorum 7913 assessed as fractional inhibitory concentration index in presence of citronellal by checkerboard broth microdilution assay; assay type: functional
Pseudomonas aeruginosa [13] = assay: Synergistic antimicrobial activity against Pseudomonas aeruginosa 27853 assessed as fractional inhibitory concentration index in presence of carvacrol by checkerboard broth microdilution assay; assay type: functional
Staphylococcus aureus [14] = assay: Synergistic antimicrobial activity against Staphylococcus aureus 25923 assessed as fractional inhibitory concentration index in presence of citral by checkerboard broth microdilution assay; assay type: functional
Staphylococcus aureus [15] = assay: Synergistic antimicrobial activity against Staphylococcus aureus 25923 assessed as fractional inhibitory concentration index in presence of perillaldehyde by checkerboard broth microdilution assay; assay type: functional
Staphylococcus aureus [16] = assay: Synergistic antimicrobial activity against Staphylococcus aureus 29213 assessed as fractional inhibitory concentration index in presence of cuminaldehyde by checkerboard broth microdilution assay; assay type: functional
[17] = test system: Staphylococcus epidermidis; assay: Synergistic antimicrobial activity against Staphylococcus epidermidis 12228 assessed as fractional inhibitory concentration index in presence of cuminaldehyde by checkerboard broth microdilution assay; assay type: functional
[18] = test system: Staphylococcus epidermidis; assay: Synergistic antimicrobial activity against Staphylococcus epidermidis 12228 assessed as fractional inhibitory concentration index in presence of citronellal by checkerboard broth microdilution assay; assay type: functional
[19] = test system: Staphylococcus epidermidis; assay: Synergistic antimicrobial activity against Staphylococcus epidermidis 12228 assessed as fractional inhibitory concentration index in presence of citral by checkerboard broth microdilution assay; assay type: functional
[20] = test system: Staphylococcus epidermidis; assay: Synergistic antimicrobial activity against Staphylococcus epidermidis 12228 assessed as fractional inhibitory concentration index in presence of perillaldehyde by checkerboard broth microdilution assay; assay type: functional
[21] = test system: Staphylococcus epidermidis; assay: Synergistic antimicrobial activity against Staphylococcus epidermidis 12228 assessed as fractional inhibitory concentration index in presence of thymol by checkerboard broth microdilution assay; assay type: functional
Staphylococcus aureus [22] = assay: Synergistic antimicrobial activity against Staphylococcus aureus 43300 assessed as fractional inhibitory concentration index in presence of thymol by checkerboard broth microdilution assay; assay type: functional
Escherichia coli [23] = assay: Antimicrobial activity against Escherichia coli K88 assessed as reduction in microbial growth by CLSI based broth microdilution method; assay type: functional
Escherichia coli [24] = assay: Antimicrobial activity against Escherichia coli 078 assessed as reduction in microbial growth by CLSI based broth microdilution method; assay type: functional
Salmonella typhimurium [25] = assay: Antimicrobial activity against Salmonella typhimurium ATCC 14028 assessed as reduction in microbial growth by CLSI based broth microdilution method; assay type: functional, Salmonella enterica subsp. enterica serovar Typhimurium; conditions: Salmonella enterica
[26] = Antimicrobial activity against Salmonella enterica subsp. enterica serovar Pullorum ATCC 7913 assessed as reduction in microbial growth by CLSI based broth microdilution method; assay type: functional
Staphylococcus aureus [27] = assay: Antimicrobial activity against Staphylococcus aureus ATCC 29213 assessed as reduction in microbial growth by CLSI based broth microdilution method; assay type: functional
[28] = test system: Staphylococcus epidermidis; assay: Antimicrobial activity against Staphylococcus epidermidis ATCC 12228 assessed as reduction in microbial growth by CLSI based broth microdilution method; assay type: functional
Enterococcus faecalis = assay: Antimicrobial activity against Enterococcus faecalis ATCC 29212 assessed as reduction in microbial growth by CLSI based broth microdilution method; assay type: functional
Salmonella typhimurium [29] = assay: Synergistic antimicrobial activity against Salmonella typhimurium ATCC 7731 assessed as fractional inhibitory concentration by checkerboard broth microdilution assay; assay type: functional, Salmonella enterica subsp. enterica serovar Typhimurium
Pseudomonas aeruginosa [30] = assay: Synergistic antimicrobial activity against Pseudomonas aeruginosa ATCC 27853 assessed as fractional inhibitory concentration by checkerboard broth microdilution assay; assay type: functional
Staphylococcus aureus [31] = assay: Synergistic antimicrobial activity against Staphylococcus aureus ATCC 29213 assessed as fractional inhibitory concentration by checkerboard broth microdilution assay; assay type: functional
[32] = test system: Staphylococcus epidermidis; assay: Synergistic antimicrobial activity against Staphylococcus epidermidis ATCC 12228 assessed as fractional inhibitory concentration by checkerboard broth microdilution assay; assay type: functional
Staphylococcus aureus [33] = assay: Synergistic antimicrobial activity against Staphylococcus aureus 43300 assessed as fractional inhibitory concentration by checkerboard broth microdilution assay; assay type: functional
Salmonella typhimurium [34] = assay: Antimicrobial activity against Salmonella typhimurium ATCC 14028 assessed as reduction in microbial growth in presence of cuminaldehyde by CLSI based broth microdilution method; assay type: functional, Salmonella enterica subsp. enterica serovar Typhimurium; conditions: Salmonella enterica
Salmonella typhimurium [35] = assay: Antimicrobial activity against Salmonella typhimurium ATCC 7731 assessed as reduction in microbial growth in presence of cuminaldehyde by CLSI based broth microdilution method; assay type: functional, Salmonella enterica subsp. enterica serovar Typhimurium; conditions: Salmonella enterica
Staphylococcus aureus [36] = assay: Antimicrobial activity against Staphylococcus aureus 43300 assessed as reduction in microbial growth in presence of cuminaldehyde by CLSI based broth microdilution method; assay type: functional
Escherichia coli [37] = assay: Antimicrobial activity against Escherichia coli ATCC 25922 assessed as reduction in microbial growth in presence of cuminaldehyde by CLSI based broth microdilution method; assay type: functional
Escherichia coli [38] = assay: Antimicrobial activity against Escherichia coli K99 assessed as cuminaldehyde MIC by CLSI based broth microdilution method; assay type: functional
Escherichia coli [39] = assay: Antimicrobial activity against Escherichia coli 078 assessed as cuminaldehyde MIC by CLSI based broth microdilution method; assay type: functional; conditions: 78
Salmonella typhimurium [40] = assay: Antimicrobial activity against Salmonella typhimurium ATCC 14028 assessed as cuminaldehyde MIC by CLSI based broth microdilution method; assay type: functional, Salmonella enterica subsp. enterica serovar Typhimurium; conditions: Salmonella enterica
Salmonella typhimurium [41] = assay: Antimicrobial activity against Salmonella typhimurium ATCC 7731 assessed as cuminaldehyde MIC by CLSI based broth microdilution method; assay type: functional, Salmonella enterica subsp. enterica serovar Typhimurium; conditions: Salmonella enterica
Staphylococcus aureus [42] = assay: Antimicrobial activity against Staphylococcus aureus ATCC 25923 assessed as cuminaldehyde MIC by CLSI based broth microdilution method; assay type: functional
Staphylococcus aureus [43] = assay: Antimicrobial activity against Staphylococcus aureus 43300 assessed as cuminaldehyde MIC by CLSI based broth microdilution method; assay type: functional

For `CC[C@H](C)[C@H](NC(=O)[C@@H](NC(=O)[C@@H](CCCNC(=N)N)NC(=O)[C@H](C)NC(=O)[C@H](C)NC(=O)[C@@H](N)Cc1cccc2ccccc12)[C@@H](C)CC)C(=O)N[C@@H](CC(C)C)C(=O)N[C@H](CCCNC(=N)N)C(=O)N[C@@H](Cc1c[nH]c2ccccc12)C(=O)N[C@H](CCCNC(=N)N)C(=O)N[C@@H](Cc1ccccc1)C(=O)N[C@@H](CCCNC(=N)N)C(=O)O`, the “fractional inhibitory concentration index (FICI)” value (Escherichia coli [1]) was 0.25, the “fractional inhibitory concentration index (FICI)” value (Escherichia coli [2]) was 0.281 and the “fractional inhibitory concentration index (FICI)” value (Escherichia coli [3]) was 0.313. For the same compound, the “fractional inhibitory concentration index (FICI)” value (Escherichia coli [4]) was 0.188, the “fractional inhibitory concentration index (FICI)” value (Escherichia coli [5]) was 0.375 and the “fractional inhibitory concentration index (FICI)” value (Escherichia coli [6]) was 0.375. The “fractional inhibitory concentration index (FICI)” value (Escherichia coli [7]) was 0.125, the “fractional inhibitory concentration index (FICI)” value (Escherichia coli [8]) was 0.188 and the “fractional inhibitory concentration index (FICI)” value (Salmonella typhimurium [9]) was 0.254. For the same compound, the “fractional inhibitory concentration index (FICI)” value (Salmonella typhimurium [10]) was 0.5, the “fractional inhibitory concentration index (FICI)” value (Salmonella typhimurium [11]) was 0.141 and the “fractional inhibitory concentration index (FICI)” value [12] was 0.25. The “fractional inhibitory concentration index (FICI)” value (Pseudomonas aeruginosa [13]) was 0.5, the “fractional inhibitory concentration index (FICI)” value (Staphylococcus aureus [14]) was 0.25 and the “fractional inhibitory concentration index (FICI)” value (Staphylococcus aureus [15]) was 0.625. For the same compound, the “fractional inhibitory concentration index (FICI)” value (Staphylococcus aureus [16]) was 0.094, the “fractional inhibitory concentration index (FICI)” value [17] was 0.375 and the “fractional inhibitory concentration index (FICI)” value [18] was 0.25. For the same compound, the “fractional inhibitory concentration index (FICI)” value [19] was 0.5, the “fractional inhibitory concentration index (FICI)” value [20] was 0.375 and the “fractional inhibitory concentration index (FICI)” value [21] was 0.75. The “fractional inhibitory concentration index (FICI)” value (Staphylococcus aureus [22]) was 0.75, the MIC (Escherichia coli [23]) was 4 µg/mL and the MIC (Escherichia coli [24]) was 8 µg/mL. For the same compound, the MIC (Salmonella typhimurium [25]) was 4 µg/mL, the MIC [26] was 16 µg/mL and the MIC (Staphylococcus aureus [27]) was 16 µg/mL. For the same compound, the MIC [28] was 4 µg/mL, the MIC (Enterococcus faecalis) was 8 µg/mL and the FIC (Salmonella typhimurium [29]) was 0.063. The FIC (Pseudomonas aeruginosa [30]) was 0.125, the FIC (Staphylococcus aureus [31]) was 0.25 and the FIC [32] was 0.25. The FIC (Staphylococcus aureus [33]) was 0.25, the MIC (Salmonella typhimurium [34]) was 0.5 µg/mL and the MIC (Salmonella typhimurium [35]) was 0.5 µg/mL. The MIC (Staphylococcus aureus [36]) was 4 µg/mL, the MIC (Escherichia coli [37]) was 1 µg/mL and the MIC (Escherichia coli [38]) was 1020 µg/mL. It also gave an MIC (Escherichia coli [39]) of 1020 µg/mL, an MIC (Salmonella typhimurium [40]) of 1020 µg/mL and an MIC (Salmonella typhimurium [41]) of 1020 µg/mL. It also gave an MIC (Staphylococcus aureus [42]) of 256 µg/mL and an MIC (Staphylococcus aureus [43]) of 1020 µg/mL.
